In the supplement of paper PMC8882468:

Columns and labels:
Assay in all cases: CTG-3D luminescence at 96 h relative to day-0 seeding control (ratio to day 0); higher = more growth / less cytotoxicity; PDxO 3D drug screen, 96 h, CTG-3D normalised to day-0 seeding control.
HCI-008 = system: HCI-008 (organoid from a HER2-enriched breast cancer xenograft)
HCI-015 = system: HCI-015 (organoid from a triple-negative breast cancer xenograft)
HCI-005.E2 = system: HCI-005.E2 (organoid from a breast cancer xenograft with a HER2-positive history)
HCI-016 = system: HCI-016 (organoid from a triple-negative breast cancer xenograft)
HCI-001 = system: HCI-001 (organoid from a triple-negative breast cancer xenograft)

COc1cccc2c1C(=O)c1c(O)c3c(c(O)c1C2=O)C[C@@](O)(C(=O)CO)C[C@@H]3O[C@H]1C[C@H](N)[C@H](O)[C@H](C)O1 [doxorubicin]
CTG-3D luminescence at 96 h
Settings	12.5 pM	0.00025 µM	0.005 µM	0.1 µM	1 µM	10 µM	100 µM	625 fM
HCI-001, days in culture: 240	1.83	0.976	0.995	1.06	0.795	0.102	0.0662	1.82
HCI-001, days in culture: 260	2.69	0.99	2.06	1.71	0.863	0.169	0.0518	1.54
HCI-001, days in culture: 269	1.42	1.69	1.45	1.69	0.478	0.0884	0.00519	1.42
HCI-001, days in culture: 327	1.28	1.49	1.57	1.78	1.18	0.146	0.284	1.5
HCI-001, days in culture: 346	1.4	1.22	1.02	1.01	0.949	0.141	0.182	1.14
HCI-001, days in culture: 364	1.33	1.06	1.3	0.946	0.616	0.116	0.143	1.49
HCI-008, days in culture: 228	1.33	1.91	1.48	1.51	0.743	0.19	0.0571	1.87
HCI-008, days in culture: 244	1.19	1.9	1.52	2.09	0.849	0.198	0.0903	2.37
HCI-015, days in culture: 172	2.4	1.39	2.21	0.657	0.0852	0.0438	0.0135	2.35
HCI-015, days in culture: 191	2.38	1.36	1.43	0.382	0.0711	0.0286	0.019	1.61
HCI-015, days in culture: 218	1.76	1.38	1.98	0.575	0.0701	0.0582	0.0222	1.86
HCI-016, days in culture: 153	2.98	1.26	2.02	0.665	0.19	0.0767	0.0122	2.51
HCI-016, days in culture: 172	2.04	1.45	1.73	1.29	0.194	0.0836	0.0359	1.97
HCI-016, days in culture: 190	1.66	1.38	1.27	0.803	0.316	0.118	0.0242	1.26
HCI-016, days in culture: 199	1.35	1.52	1.53	1.33	0.159	0.232	0.0264	1.7

HCI-005.E2
Settings	CTG-3D luminescence at 96 h
12.5 pM	1.5
0.00025 µM	1.93
0.005 µM	1.21
0.1 µM	1.07
1 µM	0.557
10 µM	-0.00289
100 µM	-0.00667
625 fM	1.71

C/C=C1\NC(=O)[C@H]2CSSCC/C=C/[C@H](CC(=O)N[C@H](C(C)C)C(=O)N2)OC(=O)[C@H](C(C)C)NC1=O [romidepsin]
CTG-3D luminescence at 96 h
Settings	12.5 pM	0.00025 µM	0.005 µM	0.1 µM	1 µM	10 µM	100 µM	625 fM
HCI-001, days in culture: 240	1.85	1.11	0.504	0.308	0.442	0.0301	-0.0763	1.57
HCI-001, days in culture: 260	2.41	0.948	1.41	0.615	0.865	0.141	-0.0313	1.64
HCI-001, days in culture: 269	1.82	1.72	0.783	0.423	0.38	0.00899	-0.0103	1.64
HCI-001, days in culture: 327	1.6	1.01	0.868	0.329	0.501	-0.124	-0.199	1.75
HCI-001, days in culture: 346	1.68	1.28	0.579	0.303	0.317	-0.107	-0.155	1.21
HCI-001, days in culture: 364	1.68	1.04	0.67	0.274	0.349	0.0111	-0.0729	1.63
HCI-008, days in culture: 228	1.78	1.7887	0.632	0.0457	0.0185	0.0061	-0.00528	2.13
HCI-008, days in culture: 244	1.41	2.08	0.607	0.0448	0.0206	0.00309	-0.0086	2.35
HCI-015, days in culture: 172	1.96	1.32	1.05	0.221	0.425	-0.0523	-0.0841	2.7
HCI-015, days in culture: 191	2.51	1.79	0.707	0.312	0.256	0.0321	0.00192	2.21
HCI-015, days in culture: 218	2.09	1.5	0.78	-0.0662	-0.0737	-0.275	-0.342	2.07
HCI-016, days in culture: 153	2.79	0.384	0.563	0.106	0.214	-0.00553	-0.0108	2.21
HCI-016, days in culture: 172	2.29	1.31	0.385	0.107	0.127	0.00531	-0.0131	1.69
HCI-016, days in culture: 190	1.76	1.62	0.684	0.0156	0.0109	-0.0529	-0.107	1.55
HCI-016, days in culture: 199	2	2.14	0.631	0.071	0.0656	-0.00558	-0.0191	2.15

HCI-005.E2
Settings	CTG-3D luminescence at 96 h
12.5 pM	1.07
0.00025 µM	0.734
0.005 µM	0.155
0.1 µM	0.0737
1 µM	0.0546
10 µM	0.00415
100 µM	-0.00471
625 fM	0.827
